From patent publication US20250034196A1, “ESTER DERIVATIVES OF N4-HYDROXYCYTIDINE AND USE THEREOF” (priority 2021, published 2025)

Legend:
[1] = in vitro; type: in vitro ADME; details: plasma
Method: (§1) Preparation of Solutions: Stock solution (10 mM) of each of test compounds was prepared in DMSO. The stock solution for each compound was then diluted into 100 μM with acetonitrile.
Plasma Incubations: Plasma incubations were conducted in duplicate in 96-well plate at 37° C. Plasma was prewarmed in a total volume of 198 μL for 5 min at 37° C., then added 2 μL of 100 μM test compound into an incubation well containing plasma, pipette-mixed to achieve a homogenous suspension and immediately transferred 20 μL incubate as a 0 min sample to wells in a “Quenching” plate followed by adding 200 μL of acetonitrile with metolazone as internal standard (IS) and pipette-mixing. At 2, 5, 60, and 90 min, pipette-mixed the incubate and serially transfer samples of 20 μL incubate per time point to wells in a separate “Quenching” plate followed by adding 200 μL of acetonitrile with metolazone as IS and pipette-mixing.
(§2) Sample Analysis: The 96-well plate was centrifuged at 6000 g for 10 min. The supernatant was injected onto the LC-MS/MS system for analysis.

[2] = in vitro; type: in vitro ADME; details: microsomes, pH 7.4
Method: as §1
(§3) Microsome Incubations: Incubation mixtures were prepared in a total volume of 200 μL with final component concentrations as follows: 0.1M PBS (pH 7.4), NADPH (2 mM) and liver microsomes (0.2 mg/mL) as well as test compound (1 μM) or Molnupiravir (1 μM) as a positive control, wherein the NADPH was added after a 5-min preincubation of all other components at 37° C. Pipette-mixed to achieve a homogenous suspension and immediately transferred 20 μL incubate as a 0 min sample to wells in a “Quenching” plate followed by adding 200 μL of acetonitrile with metolazone as IS and pipette-mixing. At 2, 5, 10, and 45 min, pipette-mixed the incubate and serially transfer samples of 20 μL incubate per time point to wells in a separate “Quenching” plate followed by adding 200 μL of acetonitrile with metolazone as IS and pipette-mixing.
as §2

[3] = Microsome stability; type: in vitro ADME, Monkey; details: monkey, microsomes, pH 7.4
Method: as §1, §3, §2

[4] = test system: SARS-CoV-2, Hongkong strain; type: in vivo, K18 hACE2 transgenic mice
[5] = in vivo; parameters: species or system Beagle Dogs; details: dog, po; for Cmax: Cmax of EX-2/CH2101; for Tmax: Tmax of EX-2/CH2101; for AUC(0-t): AUClast of EX-2/CH2101; for concentration at 0.25 hr / concentration at 0.5 hr / concentration at 1 hr / concentration at 0.083 hr: Plasma concentration of EX-2/CH2101
Method: Example 174: Pharmacokinetic Study of EX-2 (CH2101), Molnupiravir (CH2017) and its Metabolite NHC (CH2018) Following a Single PO Administration of EX-2 (CH2101) or Molnupiravir (CH2017) in Male and Female Beagle Dogs
Both test compounds were prepared in 1% methyl cellulose (400 cps, SIGMA, SLCF9694) solution in purified water.
A total of 6 male+6 female Beagle Dogs, approximately 7-13 kg of bodyweight, were originally purchased from Marshall Biotechnology Co., Ltd. The animals were fasted overnight prior to dosing and food was re-provided after 4 hours post dosing.
The animals were restrained manually, and approximately 1 mL of blood at each time point was collected into pre-cooled EDTA-K2 tubes via cephalic or saphenous veins. Blood samples were centrifuged at 4° C. (4000 rpm. 5 min) to obtain plasma within 30 min after sample collection. All samples were stored at approximately −80° C. until analysis. The backup samples will be discarded after the in vivo experiment has been completed for two months unless requested.

[6] = in vitro; details: African green monkey

Which results are given for `CC(=O)ONc1ccn([C@@H]2O[C@H](CO)[C@@H](O)[C@H]2O)c(=O)n1` [EX-2]?
half-life at 1 µM ([1]; dog): 79.1 min; half-life at 1 µM ([1]; human): 11.6 min; half-life at 1 µM ([1]; monkey): 29.3 min; half-life at 1 µM ([1]; mouse): 7.4 min; half-life at 1 µM ([1]; rat): 87.8 min; half-life at 1 µM ([2]; dog): 76.3 min; half-life at 1 µM ([2]; human): 33.5 min; half-life at 1 µM ([2]; mouse): 16.2 min; half-life at 1 µM ([2]; rat): 288 min; half-life at 1 µM [3]: 50.8 min; Survival proportions ([4]; 14-day study, twice daily days 0-6, CH2101 450 mg/kg PO, Remdesivir 25 mg/kg SC): 100%; Antiviral efficacy in vivo (conclusion) ([4]; 450 mpk PO twice daily): optimal antiviral efficacy in vivo; Clinical symptoms (observation) ([4]; CH2101 450 mpk PO twice daily days 0-6): no infection-related clinical symptom was observed; Body weights (observation) ([4]; EX-2/CH2101 450 mpk PO twice daily days 0-6): without notable body weight loss observed; Virus titer in lung ([4]; day 5, plaque assay, mean, twice daily days 0-4, CH2101 450 mpk PO, Remdesivir 25 mpk SC): 2.64 Log 10 plaque#/g lung; Virus titer in lung, mean difference vs. group 1 (Vehicle group) ([4]; day 5, CH2101 450 mpk PO, Remdesivir 25 mpk SC): 3.31 Log; Median survival time ([4]; twice daily days 0-6, CH2101 450 mg/kg PO, Remdesivir 25 mg/kg SC): Undefined; Cmax ([5]; both sexes, Beagle, 20 mg/kg): 12.8 ng/mL; Tmax ([5]; both sexes, Beagle, 20 mg/kg): 15 min; AUC(0-t) ([5]; both sexes, beagle, 10 mg/kg): 5.07 ng·h/mL; Cmax ([5]; both sexes, beagle, 10 mg/kg): 15.5 ng/mL; concentration at 0.25 hr ([5]; both sexes, beagle, 10 mg/kg): 16 ng/mL; concentration at 0.5 hr ([5]; both sexes, beagle, 10 mg/kg): 10.7 ng/mL; concentration at 1 hr ([5]; both sexes, beagle, 10 mg/kg): 12.2 ng/mL; Tmax ([5]; both sexes, beagle, 10 mg/kg): 26.3 min; AUC(0-t) ([5]; both sexes, beagle, 20 mg/kg): 5.43 ng·h/mL; concentration at 0.083 hr ([5]; both sexes, beagle, 20 mg/kg): 11.2 ng/mL; concentration at 0.25 hr ([5]; both sexes, beagle, 20 mg/kg): 12.8 ng/mL; concentration at 0.5 hr ([5]; both sexes, beagle, 20 mg/kg): 10.5 ng/mL; concentration at 1 hr ([5]; both sexes, beagle, 20 mg/kg): 11.3 ng/mL; Plasma concentration of EX-1/NHC/CH2018 ([5]; both, Beagle, 20 mg/kg, 6 hr): 401 ng/mL; Plasma concentration of EX-1/NHC/CH2018 ([5]; both, Beagle, 20 mg/kg, 8 hr): 138 ng/mL; Plasma concentration of EX-1/NHC/CH2018 ([5]; both, Beagle, 20 mg/kg, 24 hr): 17.7 ng/mL; AUCmale/female of EX-1/NHC/CH2018 ([5]; both, beagle, 20 mg/kg): 69.2%; AUCmale/female of EX-2/CH2101 ([5]; both, beagle, 20 mg/kg): 96.1%; Plasma concentration of EX-1/NHC/CH2018 ([5]; both, beagle, 20 mg/kg, 0.083 hr): 148 ng/mL; Plasma concentration of EX-1/NHC/CH2018 ([5]; both, beagle, 20 mg/kg, 0.25 hr): 2014 ng/mL; Plasma concentration of EX-1/NHC/CH2018 ([5]; both, beagle, 20 mg/kg, 0.5 hr): 3703 ng/mL; Plasma concentration of EX-1/NHC/CH2018 ([5]; both, beagle, 20 mg/kg, 1 hr): 6118 ng/mL; Plasma concentration of EX-1/NHC/CH2018 ([5]; both, beagle, 20 mg/kg, 2 hr): 5958 ng/mL; Plasma concentration of EX-1/NHC/CH2018 ([5]; both, beagle, 20 mg/kg, 4 hr): 1600 ng/mL; AUC(0-t) ([5]; female, Beagle, 20 mg/kg): 5.54 ng·h/mL; Cmax ([5]; female, Beagle, 20 mg/kg): 13 ng/mL; Tmax ([5]; female, Beagle, 20 mg/kg): 15 min; Cmax of EX-2/CH2101 ([5]; female, beagle, 10 mg/kg): 14.0 ng/mL; Tmax of EX-2/CH2101 ([5]; female, beagle, 10 mg/kg): 60 min; Cmax ([5]; female, beagle, 10 mg/kg): 12.2 ng/mL; concentration at 0.25 hr ([5]; female, beagle, 10 mg/kg): 14 ng/mL; concentration at 1 hr ([5]; female, beagle, 10 mg/kg): 12.2 ng/mL; concentration at 0.25 hr ([5]; female, beagle, 20 mg/kg): 13 ng/mL; concentration at 1 hr ([5]; female, beagle, 20 mg/kg): 11.3 ng/mL; AUC(0-t) ([5]; male, Beagle, 20 mg/kg): 5.32 ng·h/mL; Cmax ([5]; male, Beagle, 20 mg/kg): 12.5 ng/mL; Tmax ([5]; male, Beagle, 20 mg/kg): 15 min; AUC(0-t) ([5]; male, beagle, 10 mg/kg): 5.07 ng·h/mL; Cmax ([5]; male, beagle, 10 mg/kg): 17.9 ng/mL; concentration at 0.25 hr ([5]; male, beagle, 10 mg/kg): 17.9 ng/mL; concentration at 0.5 hr ([5]; male, beagle, 10 mg/kg): 10.7 ng/mL; Tmax ([5]; male, beagle, 10 mg/kg): 15 min; concentration at 0.083 hr ([5]; male, beagle, 20 mg/kg): 11.2 ng/mL; concentration at 0.25 hr ([5]; male, beagle, 20 mg/kg): 12.5 ng/mL; concentration at 0.5 hr ([5]; male, beagle, 20 mg/kg): 10.5 ng/mL; CC50 at 4 days [6]: 18.2 µM
